From PubChem BioAssay (NCI) come the findings set out here.

Several values for one entry are separate records, joined by “and”; a condition that tells them apart may be missing. Identical values can stand only once.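 How tested: cells in 96-well plates exposed to compound for 48 hours at five concentrations. At the GI50, growth is halved. TGI is the concentration that stops growth completely.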 A value given as a limit tells only on which side of the number the result lay.

Some test systems named below: A498 renal; A549 NSCLC; LOX IMVI melanoma; NCI-H23 lung; SF-268 CNS; SK-OV-3 ovarian; SN12C renal; SW-620 colon; TK-10 renal.
What all share (assay): NCI-60 cell line screen, 48 h

In the case of `CC1(O)CC2C(CC1SCc1ccccc1)C2(C)C` (stereo not drawn), the TGI in the experiment on A498 renal was 57.9 µM and 32.5 µM; in the experiment on A549 NSCLC, > 100 µM and 31.1 µM; in the experiment with LOX IMVI melanoma it was 29.3 µM and 31.5 µM; with NCI-H23 lung, 58.5 µM and 27.4 µM; in the experiment with SF-268 CNS, 54.9 µM and 42 µM; in the experiment on SK-OV-3 ovarian, > 100 µM and 29.2 µM. For the same compound, the TGI with SN12C renal is 43 µM and 29.5 µM; with SW-620 colon, 46.8 µM and 32.9 µM; with TK-10 renal it was > 100 µM and 34.1 µM. Besides, the GI50 with A549 NSCLC is 40.9 µM and 17.4 µM; in the experiment with SK-OV-3 ovarian it was 37.5 µM and 15.7 µM; in the experiment on TK-10 renal it was 57.1 µM and 19.9 µM.

On to `O=C(/C=N/O)Nc1cccc(Cl)c1I`, for which the TGI in the experiment with A498 renal, with A549 NSCLC, in the experiment on LOX IMVI melanoma, in the experiment with NCI-H23 lung, in the experiment on SF-268 CNS and with SK-OV-3 ovarian was greater than 100 µM in each case. The TGI with SN12C renal, in the experiment with SW-620 colon and in the experiment with TK-10 renal was greater than 100 µM throughout.

With `CNC(=O)N(CCCCC(NC(C)=O)C(=O)NCc1ccccc1)Cc1ccccc1` (stereo not drawn), the TGI with A498 renal, in the experiment with A549 NSCLC, in the experiment with LOX IMVI melanoma, in the experiment on NCI-H23 lung, in the experiment on SF-268 CNS and in the experiment with SK-OV-3 ovarian was greater than 100 µM in each case. Also, the TGI in the experiment with SN12C renal, with SW-620 colon and in the experiment with TK-10 renal was greater than 100 µM each time.

Turning to `COc1ccc(/C(C#N)=C2/O/C(=N/N)C(c3ccc(OC)c(OC)c3)C2=O)cc1OC` (stereo not drawn), the TGI in the experiment with A549 NSCLC, in the experiment with LOX IMVI melanoma, in the experiment with NCI-H23 lung, in the experiment with SF-268 CNS, in the experiment on SK-OV-3 ovarian and in the experiment on SN12C renal was greater than 100 µM in each case. Also, the TGI in the experiment on SW-620 colon and in the experiment with TK-10 renal was greater than 100 µM in each case.

On to `CCOc1ccc(N=Nc2c(-c3ccccc3)nn(C(=O)CC(=O)Nc3ccccc3Cl)c2-c2ccccc2)cc1`, for which the TGI in the experiment with A549 NSCLC, in the experiment with LOX IMVI melanoma, in the experiment with NCI-H23 lung, with SF-268 CNS, with SK-OV-3 ovarian and with SN12C renal was greater than 100 µM each time. Besides, the TGI with SW-620 colon and in the experiment with TK-10 renal was greater than 100 µM throughout.

For `CC(=O)Nc1ccc2c(c1)[nH]c(=O)c1cc(Cl)ccc12`, the TGI with A498 renal, with A549 NSCLC, in the experiment with LOX IMVI melanoma, in the experiment with NCI-H23 lung, in the experiment on SF-268 CNS and with SK-OV-3 ovarian was greater than 100 µM each time. In addition, the TGI in the experiment with SN12C renal was greater than 100 µM; with SW-620 colon, greater than 100 µM; in the experiment with TK-10 renal it was 60.4 µM.

Consider `COc1cc2c(c(OC)c1OC)-c1ccc(SC)c(=O)cc1C(CC(=O)Oc1ccccc1F)C2` (stereo not drawn), for which the TGI in the experiment with A498 renal is 6.77 µM; in the experiment on A549 NSCLC, greater than 7.5 µM; in the experiment with LOX IMVI melanoma, 4.28 µM; in the experiment on NCI-H23 lung, 0.0894 µM; in the experiment with SF-268 CNS it was greater than 7.5 µM; in the experiment on SK-OV-3 ovarian, greater than 7.5 µM. Moreover, the TGI with SN12C renal, in the experiment on SW-620 colon and with TK-10 renal was greater than 7.5 µM each time.

Consider `CCOC(=O)C(=O)Nc1nc2ccc(OC)cc2s1`, for which the TGI in the experiment with A498 renal, with A549 NSCLC, in the experiment with LOX IMVI melanoma, in the experiment on NCI-H23 lung, in the experiment on SF-268 CNS and in the experiment on SK-OV-3 ovarian was greater than 100 µM throughout. In addition, the TGI in the experiment with SN12C renal, in the experiment on SW-620 colon and with TK-10 renal was greater than 100 µM each time.

With `Nc1cccc(C(=O)/C=C/c2ccccc2O)c1`, the TGI in the experiment with A498 renal, in the experiment with A549 NSCLC, in the experiment on LOX IMVI melanoma, with NCI-H23 lung, with SF-268 CNS and with SK-OV-3 ovarian was greater than 100 µM in each case. The values for the TGI in the experiment with SN12C renal, in the experiment with SW-620 colon and with TK-10 renal were greater than 100 µM, 29.6 µM and greater than 100 µM, respectively.

Regarding `COc1cc([C@H]2c3cc4c(cc3[C@H](NCc3ccc(F)cc3)C3COC(=O)[C@H]32)OCO4)cc(OC)c1O` (stereo partly drawn), the TGI was 8.02 µM with A498 renal; 17 µM in the experiment on LOX IMVI melanoma; 6.34 µM with NCI-H23 lung; greater than 100 µM in the experiment with SF-268 CNS; 9.78 µM in the experiment with SK-OV-3 ovarian; 6.67 µM in the experiment with SN12C renal. The TGI in the experiment on SW-620 colon came to 21.4 µM; in the experiment with TK-10 renal, 41.4 µM.

On to `NC(=O)N1N=C2c3ccccc3OC[C@H]2[C@@H]1c1ccccc1`, for which the TGI with A498 renal is greater than 81.5 µM; in the experiment with A549 NSCLC it was greater than 100 µM; in the experiment with LOX IMVI melanoma it was greater than 100 µM; in the experiment on NCI-H23 lung, greater than 92.4 µM; in the experiment on SF-268 CNS, greater than 80.4 µM; in the experiment with SK-OV-3 ovarian it was greater than 100 µM. The TGI in the experiment on SN12C renal, with SW-620 colon and in the experiment on TK-10 renal was greater than 100 µM each time.

Take `COc1ccc(C2C(C(=O)O)=C(COC(C)=O)Oc3cc4c(cc32)OCO4)c(OC)c1` (stereo not drawn): the TGI in the experiment on A549 NSCLC, in the experiment with LOX IMVI melanoma, in the experiment on NCI-H23 lung, in the experiment with SK-OV-3 ovarian, in the experiment on SN12C renal and in the experiment with SW-620 colon was greater than 100 µM in each case. This compound also came in with a TGI in the experiment with TK-10 renal greater than 100 µM.

With `CCOC(=O)c1cnc2c(ccc3ncccc32)c1OCC`, the TGI in the experiment on A498 renal, in the experiment with A549 NSCLC, in the experiment on LOX IMVI melanoma, in the experiment on NCI-H23 lung, in the experiment on SF-268 CNS and in the experiment with SK-OV-3 ovarian was greater than 100 µM in each case. Moreover, the TGI in the experiment with SN12C renal, in the experiment on SW-620 colon and with TK-10 renal was greater than 100 µM in each case.

As to `O=S1(=O)CS(=O)(=O)OCCCCCO1`, the TGI with A498 renal, in the experiment with A549 NSCLC, in the experiment with LOX IMVI melanoma, in the experiment with NCI-H23 lung, in the experiment on SF-268 CNS and in the experiment with SK-OV-3 ovarian was greater than 100 µM in each case. Moreover, the TGI in the experiment with SN12C renal, in the experiment on SW-620 colon and in the experiment with TK-10 renal was greater than 100 µM throughout.

Consider `Cc1cc(N(CCC#N)CCC#N)ccc1/C=C1N=C(/C=C\c2ccccc2)N(c2ccc(C(=O)O)cc2)C\1=O`, for which the TGI in the experiment on A498 renal, in the experiment on A549 NSCLC, in the experiment with LOX IMVI melanoma, in the experiment on NCI-H23 lung, in the experiment on SF-268 CNS and with SK-OV-3 ovarian was greater than 100 µM in each case. Also, the TGI with SN12C renal, with SW-620 colon and in the experiment on TK-10 renal was greater than 100 µM throughout.
